Source: patent publication US20220389355A1, “CELL AGGREGATE, PRODUCING METHOD FOR MANUFACTURING CELL AGGREGATE, PRODUCING KIT FOR CELL AGGREGATE, AND CHEMICAL COMPOUND EVALUATING METHOD USING CELL AGGREGATE” (THE JAPAN WOOL TEXTILE CO., LTD., priority 2019, published 2022)
Like-named read-outs stand apart in the source and are kept apart here.

Tests used:
[1] = tested on: cardiomyocyte multicellular construct (human iPS cell derived cardiomyocytes); test: Example 8: calcium imaging, ratio of specimens with arrhythmia waveform; conditions: for Ratio of specimens that exhibited the calcium ion signal waveform corresponding to arrhythmia, Dose 1 (%): Dose 1 of Table 5: azithromycin 1 μM, chloroquine or hydroxychloroquine 0.3 μM; for Ratio of specimens that exhibited the calcium ion signal waveform corresponding to arrhythmia, Dose 1 (%) / Ratio of specimens that exhibited the calcium ion signal waveform corresponding to arrhythmia, Dose 2 (%) / Ratio of specimens that exhibited the calcium ion signal waveform corresponding to arrhythmia, Dose 3 (%) / Ratio of specimens that exhibited the calcium ion signal waveform corresponding to arrhythmia, Dose 4 (%): alone or with azithromycin fixed to 3 μM; for Ratio of specimens that exhibited the calcium ion signal waveform corresponding to arrhythmia, Dose 2 (%): Dose 2 of Table 5: azithromycin 3 μM, chloroquine or hydroxychloroquine 1 μM; for Ratio of specimens that exhibited the calcium ion signal waveform corresponding to arrhythmia, Dose 3 (%): Dose 3 of Table 5: azithromycin 10 μM, chloroquine or hydroxychloroquine 3 μM; for Ratio of specimens that exhibited the calcium ion signal waveform corresponding to arrhythmia, Dose 4 (%): Dose 4 of Table 5: chloroquine or hydroxychloroquine 10 μM, azithromycin alone: no Dose 4 in Table 5
[2] = tested on: cardiomyocyte multicellular construct (human iPS cell derived cardiomyocytes); test: Example 8: contractile force of cardiomyocyte multicellular construct, ratio of specimens with halved contractile force; conditions: alone or with azithromycin fixed to 3 μM; for Ratio of specimens whose contractile force decreased to half of that before the addition, Dose 1 (%): Dose 1 of Table 5: azithromycin 1 μM, chloroquine or hydroxychloroquine 0.3 μM; for Ratio of specimens whose contractile force decreased to half of that before the addition, Dose 2 (%): Dose 2 of Table 5: azithromycin 3 μM, chloroquine or hydroxychloroquine 1 μM; for Ratio of specimens whose contractile force decreased to half of that before the addition, Dose 3 (%): Dose 3 of Table 5: azithromycin 10 μM, chloroquine or hydroxychloroquine 3 μM
[3] = tested on: human iPS cell derived cardiomyocyte multicellular construct; test: Example 5: calcium ion imaging of multicellular construct, response against isoproterenol; type: cell-based; conditions: 100 nM, 5 minutes after addition, fourth day of the culture; 60 bpm before the addition
Method: Cells were seeded in the same manner as in Example 4, and a liquid culture medium was added 4 hours later to start cell culturing. On the fourth day of the culture, a calcium indicator (EarlyTox Cardiotoxicity Kit, Molecular Devices LLC.) was added to the culture medium at a volume ratio of 5/100 to fluorescently stain calcium ions in the cardiomyocytes.
Videos were captured at 20 FPS using a confocal imaging confocal imaging system (CellVoyager CQ1, Yokogawa Electric Corp.). Fluorescent areas in the obtained videos were recognized using an analysis software CellPathfinder, Yokogawa Electric Corp.), and signal waveforms of calcium ions in the cardiomyocytes were obtained by plotting the fluorescence intensities versus time.

[4] = tested on: cardiomyocyte multicellular construct (human iPS cell derived cardiomyocytes); test: Example 7: calcium imaging evaluation of response of cardiomyocyte multicellular construct against compound; type: cell-based; conditions: seventh day of the culture; for Calcium ion signal waveform compared with before the addition: 1000 nM, cumulative addition, 10 minutes after addition; for Beating rate compared with before the addition: cumulative addition 1 to 1000 nM
Method: Cells were seeded and cultured in the same manner as in Example 6, except that the cells were seeded such that the seeding amount per unit area of the scaffold was 6000 cells/mm^2.
On the sixth day of the culture, the cardiomyocyte multicellular construct was placed such that a surface containing more cells faced the bottom surface of a culture dish (IWAKI Multiwell Plate, Non-treated surface for suspension cell culture 6. Well), and was then left to stand for a day. On the seventh day of the culture, a calcium indicator (EarlyTox Cardiotoxicity Kit, Molecular Devices LLC) was added to the culture medium at a volume ratio of 25/100 to fluorescently stain calcium ions in the cardiomyocytes.
The fluorescence intensities in the entire 10-fold magnified visual fields of the obtained images were plotted versus time using an analysis software CellPathfinder, Yokogawa Electric Corp.), and thus signal waveforms of calcium ions in the cardiomyocytes were obtained. Verapamil is a Ca channel antagonist having an Ikr inhibitory effect.

[5] = tested on: cardiomyocyte multicellular construct (human iPS cell derived cardiomyocytes); test: Example 7: contractile force and contraction-relaxation rate of cardiomyocyte multicellular construct (MUSCLEMOTION); type: cell-based; conditions: 1000 nM, seventh day of the culture
[6] = tested on: cardiomyocyte multicellular construct (human iPS cell derived cardiomyocytes)

Row | Compound | Ratio of specimens that exhibited the calcium ion signal waveform corresponding to arrhythmia, Dose 1 (%) [1] [%] | Ratio of specimens that exhibited the calcium ion signal waveform corresponding to arrhythmia, Dose 2 (%) [1] [%] | Ratio of specimens that exhibited the calcium ion signal waveform corresponding to arrhythmia, Dose 3 (%) [1] [%] | Ratio of specimens that exhibited the calcium ion signal waveform corresponding to arrhythmia, Dose 4 (%) [1] [%] | Ratio of specimens whose contractile force decreased to half of that before the addition, Dose 1 (%) [2] [%] | Ratio of specimens whose contractile force decreased to half of that before the addition, Dose 2 (%) [2] [%] | Ratio of specimens whose contractile force decreased to half of that before the addition, Dose 3 (%) [2] [%] | Calcium ion signal waveform compared with before the addition [4] | Beating rate compared with before the addition [4] | Contractile force compared with before the addition [5] | Contraction-relaxation rate compared with before the addition [5] | other results
1 | CCN(CCO)CCCC(C)Nc1ccnc2cc(Cl)ccc12 (stereo not drawn) [Hydroxychloroquine, hydroxychloroquine] | 0 | 0 | 20 | 80 | 0 | 0 | 20 | – | – | – | – | Risk of arrhythmia (conclusion from FIG. 20 and Table 6) ([1]; concentrations of Table 5): increase the risk of arrhythmia; Ratio of specimens whose contractile force decreased to half of that before the addition, Dose 4 (%) ([2]; Dose 4 of Table 5: chloroquine or hydroxychloroquine 10 μM): 100%
2 | CC(C)NCC(O)c1ccc(O)c(O)c1 (stereo not drawn) [Isoproterenol, isoproterenol] | – | – | – | – | – | – | – | became sharper | increased | increased | increased | Beating rate after the addition [3]: 76 bpm
3 | CCN(CC)CCCC(C)Nc1ccnc2cc(Cl)ccc12 (stereo not drawn) [Chloroquine, chloroquine] | – | – | – | – | – | – | – | – | – | – | – | Risk of arrhythmia (conclusion from FIG. 20 and Table 6) [6]: increase the risk of arrhythmia
4 | Cc1cccc(CCN2CCC(C(=O)c3ccc(NS(C)(=O)=O)cc3)CC2)n1 [Example E-4031] | – | – | – | – | – | – | – | became flattened | decreased | decreased | decreased | –
5 | CC[C@H]1OC(=O)[C@H](C)[C@@H](O[C@H]2C[C@@](C)(OC)[C@@H](O)[C@H](C)O2)[C@H](C)[C@@H](O[C@@H]2O[C@H](C)C[C@H](N(C)C)[C@H]2O)[C@](C)(O)C[C@@H](C)CN(C)[C@H](C)[C@@H](O)[C@]1(C)O [Azithromycin, azithromycin] | 0 | 0 | 0 | 0 | 0 | 0 | 100 | – | – | – | – | –
6 | COc1ccc(CCN(C)CCCC(C#N)(c2ccc(OC)c(OC)c2)C(C)C)cc1OC (stereo not drawn) [Verapamil, verapamil] | – | – | – | – | – | – | – | became smaller | increased | decreased | decreased | –
